Where “and” joins values, the source holds several entries; their conditions need not be identical. Identical values can stand only once.
Columns and labels:
[1] = test system: C57BL/6 mice; test: Blood glucose after DS20060511 alone in fed or overnight food-deprived mice; assay type: in vivo, mouse; details: for Blood glucose: 30 mg/kg; for blood glucose levels (in words): 30 mg kg−1
Method: Fig. 2 Treatment with DS20060511 decreases the blood glucose levels via inducing GLUT4 translocation and increasing skeletal muscle glucose uptake. a, b Blood glucose levels after treatment with DS20060511 (30 mg kg^−1) in C57BL/6 mice that had received continued access to food (a) and mice that had been denied access to food overnight (b) (n = 8). Values shown are means ± SEM. **P < 0.01 vs. 0 min by one-way ANOVA followed by Dunnett’s test. c Blood glucose and plasma insulin levels during oral GTT in the C57BL/6 mice (n = 5–6). The mice received oral administration of vehicle or DS20060511 at the indicated dose, 15 min prior to glucose administration (1.5 g kg^−1). Values shown are means ± SEM. *P < 0.05, **P < 0.01 vs. vehicle by one-way ANOVA followed by Williams’ test. d [^3H]-2-DG uptake in the soleus muscle, gastrocnemius muscle (Gastro.), heart, and white adipose tissue (WAT) at 60 min during the intraperitoneal GTT in the C57BL/6 mice (n = 3). The mice received oral administration of vehicle or DS20060511 (30 mg kg^−1), 15 min prior to glucose administration (1 g kg^−1 glucose containing [^3H]-2-DG). […] Uncropped blots for e can be found in Supplementary Fig. 6.

[2] = test system: AMPK; test: AMPK (Thr172) phosphorylation in isolated muscles with or without electrical stimulation; parameters: species or system mouse; details: isolated skeletal muscle; 10 μM DS20060511; Fig. 6b
[3] = test system: AMPKα; test: AMPKα phosphorylation in triceps surae muscle in vivo; parameters: species or system mouse; details: no-exercise condition, 10 mg kg−1, Fig. 6c
Method: The tissue sample was homogenized with a Polytron homogenizer and lysed in a lysis buffer (25 mM Tris-HCl, pH 7.4, 100 mM NaF, 50 mM Na4P2O7, 10 mM EGTA, 10 mM EDTA, 10 mM Na3VO4, 1 mM PMSF, and 1% NP-40) on ice, and the lysate was centrifuged at 17,860 × g for 10 min at 4 °C. The supernatant was collected and the protein concentrations were determined by BCA assay (Thermo Fisher Scientific). Immunoprecipitation of IRβ and IRS1 was performed as described previously, using specific antibodies against IRβ (sc-711, Santa Cruz Biotechnology, Dallas, TX), IRS1 (06-248, Merck Millipore, Burlington, MA), and for detection of phosphotyrosine (05-321, Merck Millipore). Five milligrams of the extracts were incubated with specific antibodies against IRS1 for 1 h at 4 °C. Then, protein G-Sepharose was added, followed by incubation for 2 h at 4 °C. After washing three times, the immunocomplexes were subjected to immunoblotting.
Phosphorylated or total protein of IRβ and IRS1 was resolved on 7% SDS-PAGE and analyzed using specific antibodies against IRβ, IRS1, and phosphotyrosine. […] Bound antibodies were detected with HRP-conjugated secondary antibodies using ECL detection reagents (GE Healthcare, Chicago, IL).

[4] = test system: db/db mice; test: Repeated (28-day) DS20060511 treatment of db/db mice; assay type: in vivo, mouse; parameters: Blood glucose after refeeding AUC: unit not given here; details: for Blood glucose after refeeding / Blood glucose after refeeding AUC: db/db
Method: db/db mice were acclimatized to a 6 h restricted feeding pattern from 10 am to 4 pm prior to the start of the experiment. For 28 days from 6 weeks of age, the mice received oral administration of 10 mg kg^−^1 of DS20060511 or vehicle once a day, 15 min prior to their feeding. On day 1 and day 28, the blood glucose levels were measured between 10 am to 4 pm. Blood glucose levels were measured using Glutest Every in blood samples collected from the tail vein. Daily food intake was monitored throughout the study, and the body weight, blood glucose, and plasma insulin were measured on day 1 and day 28. The hemoglobin A1c (HbA1c) level was also measured with a HLC-723G8 Automated Glycohemoglobin Analyzer on day 1 and day 28 (Tosoh, Tokyo, Japan). The triceps surae muscle (skeletal muscle), heart, epididymal WAT, and liver were excised immediately after euthanasia, and the tissue weights were measured on day 29. The glycogen contents of the muscle, heart, and liver were measured as described previously,[52] with some modifications. In brief, each tissue sample (50–100 mg) was weighed and boiled in 0.75 mL of 8 M KOH. After cooling, 0.25 mL of 1 M Na2SO4, followed by 2 mL of 99.5% ethanol, was added to precipitate the glycogen. The samples were centrifuged and the glycogen precipitates were dissolved in distilled water. Glycogen was degraded to glucose by treatment with amyloglucosidase (Sigma–Aldrich) at 55 °C for 60 min, and the glucose concentration was determined with Glucose CII Test Wako (FUJIFILM Wako Pure Chemical).

[5] = db/db mice, 10 mg/kg, Day 1, individual animals, 10 mg/kg
[6] = db/db mice, 10 mg/kg, Day 28, individual animals, 10 mg/kg

COc1ccc2c(C)c(C(=O)O)ccc2c1C1C2=C(CC(C)(C)CC2=O)OC2=C1C(=O)CC(C)(C)C2 [DS20060511]
Blood glucose ([1]; Non-fasted, 0 min, individual mice): 125 mg/dL and 139 mg/dL and 194 mg/dL and 126 mg/dL and 129 mg/dL and 150 mg/dL and 154 mg/dL and 134 mg/dL
Blood glucose ([1]; Non-fasted, 30 min): 134 mg/dL and 128 mg/dL and 101 mg/dL and 95 mg/dL and 122 mg/dL and 111 mg/dL and 121 mg/dL and 96 mg/dL
Blood glucose ([1]; Overnight fasted, 0 min): 58 mg/dL and 52 mg/dL and 73 mg/dL and 46 mg/dL and 54 mg/dL and 55 mg/dL and 61 mg/dL
Blood glucose ([1]; Overnight fasted, 30 min): 52 mg/dL and 53 mg/dL and 57 mg/dL and 60 mg/dL and 42 mg/dL and 55 mg/dL and 49 mg/dL
Blood glucose ([1]; Overnight fasted, 60 min): 56 mg/dL and 57 mg/dL and 59 mg/dL and 48 mg/dL and 50 mg/dL and 45 mg/dL
blood glucose levels (in words) ([1]; mice denied access to food overnight, Fig. 2b): no effect on the blood glucose levels
blood glucose levels (in words) ([1]; mice with continued access to food, oral, Fig. 2a): modestly, but statistically significantly, reduced the blood glucose levels
AMPK phosphorylation level [2]: no such change was observed
AMPK phosphorylation level in the skeletal muscle [3]: remained unchanged
visible sign of toxicity ([4]; 28-day repeated-dose study in db/db mice): did not find any visible sign of toxicity
Body weight (g) Day 1 [4, 5]: 25.2 g and 26.3 g and 27.7 g and 27.0 g and 28.4 g
Glucose (mg/dl) Day 1 [4, 5]: 122 mg/dL and 152 mg/dL and 138 mg/dL and 136 mg/dL and 89 mg/dL and 180 mg/dL
Insulin (ng/ml) Day 1 [4, 5]: 2.27 ng/mL and 4.08 ng/mL and 4.23 ng/mL and 4.25 ng/mL and 2.30 ng/mL and 3.38 ng/mL
Body weight (g) Day 28 [4, 6]: 37.0 g and 39.8 g and 40.4 g and 39.6 g and 39.4 g and 41.1 g
Glucose (mg/dl) Day 28 [4, 6]: 167 mg/dL and 157 mg/dL and 194 mg/dL and 145 mg/dL and 132 mg/dL and 155 mg/dL
Insulin (ng/ml) Day 28 [4, 6]: 7.52 ng/mL and 5.68 ng/mL and 8.16 ng/mL and 6.98 ng/mL and 8.68 ng/mL and 6.72 ng/mL
Tissue weight (g) WAT ([4]; db/db mice, 10 mg/kg, WAT, individual animals): 1.93 g and 2.01 g and 2.15 g and 1.84 g and 1.69 g and 2.14 g
Tissue weight (g) Heart ([4]; db/db mice, 10 mg/kg, heart, individual animals): 0.11 g and 0.10 g
Tissue weight (g) Liver ([4]; db/db mice, 10 mg/kg, liver, individual animals): 1.31 g and 1.43 g and 1.57 g and 1.42 g and 1.77 g
Tissue weight (g) Muscle ([4]; db/db mice, 10 mg/kg, muscle, individual animals): 0.17 g and 0.18 g
HbA1c (%) Afrer ([4]; db/db mice, DS20060511 10 mg/kg, after repeated treatment, individual animals, 10 mg/kg): 3.6% and 3.4% and 3.3% and 3.8%
HbA1c (%) Delta ([4]; db/db mice, DS20060511 10 mg/kg, change from pre to after, individual animals, 10 mg/kg): 0.38% and 0.35% and 0.34% and 0.46% and 0.33% and 0.7%
HbA1c (%) Pre ([4]; db/db mice, DS20060511 10 mg/kg, pre treatment (baseline), individual animals, 10 mg/kg): 3.2% and 3.3% and 3.1% and 2.9%
blood glucose levels (in words) ([4]; db/db mice, 10 mg kg−1 day−1, day 1 to day 28): decreased significantly
tissue weights of muscle, heart, WAT, liver; glycogen contents of muscle, heart, liver ([4]; db/db mice, 28-day treatment): no significant changes
hemoglobin A1c (HbA1c) value (in words) ([4]; db/db mice, chronic treatment, 4 weeks): significantly reduced
body weight, food intake, fasting blood glucose level, fasting plasma insulin levels ([4]; db/db mice, vs vehicle): no statistically significant differences
Blood glucose after refeeding ([4]; 10 mg/kg, Day 1, 0 hr, individual animals, 10 mg/kg): 91 mg/dL and 54 mg/dL and 72 mg/dL and 70 mg/dL and 85 mg/dL and 96 mg/dL
Blood glucose after refeeding ([4]; 10 mg/kg, Day 1, 0.5 hr, individual animals, 10 mg/kg): 138 mg/dL and 112 mg/dL and 86 mg/dL and 108 mg/dL and 117 mg/dL and 130 mg/dL
Blood glucose after refeeding ([4]; 10 mg/kg, Day 1, 1 hr, individual animals, 10 mg/kg): 162 mg/dL and 145 mg/dL and 120 mg/dL and 136 mg/dL and 126 mg/dL and 147 mg/dL
Blood glucose after refeeding ([4]; 10 mg/kg, Day 1, 2 hr, individual animals, 10 mg/kg): 220 mg/dL and 154 mg/dL and 182 mg/dL and 126 mg/dL and 135 mg/dL and 171 mg/dL
Blood glucose after refeeding ([4]; 10 mg/kg, Day 1, 4 hr, individual animals, 10 mg/kg): 189 mg/dL and 177 mg/dL and 142 mg/dL and 139 mg/dL and 179 mg/dL and 259 mg/dL
Blood glucose after refeeding ([4]; 10 mg/kg, Day 1, 6 hr, individual animals, 10 mg/kg): 261 mg/dL and 247 mg/dL and 262 mg/dL and 136 mg/dL and 157 mg/dL and 294 mg/dL
Blood glucose after refeeding ([4]; 10 mg/kg, Day 1, -0.25 hr, individual animals, 10 mg/kg): 124 mg/dL and 77 mg/dL and 78 mg/dL and 106 mg/dL and 118 mg/dL
Blood glucose after refeeding AUC ([4]; 10 mg/kg, Day 1, individual animals, 10 mg/kg): 1236.0 and 1043.0 and 1019.0 and 813.5 and 939.5 and 1321.3
Blood glucose after refeeding ([4]; 10 mg/kg, Day 28, 0 hr, individual animals, 10 mg/kg): 140 mg/dL and 130 mg/dL and 193 mg/dL and 159 mg/dL and 136 mg/dL
Blood glucose after refeeding ([4]; 10 mg/kg, Day 28, 0.5 hr, individual animals, 10 mg/kg): 171 mg/dL and 147 mg/dL and 157 mg/dL and 168 mg/dL and 130 mg/dL and 217 mg/dL
Blood glucose after refeeding ([4]; 10 mg/kg, Day 28, 1 hr, individual animals, 10 mg/kg): 187 mg/dL and 108 mg/dL and 139 mg/dL and 164 mg/dL and 142 mg/dL and 240 mg/dL
Blood glucose after refeeding ([4]; 10 mg/kg, Day 28, 2 hr, individual animals, 10 mg/kg): 230 mg/dL and 128 mg/dL and 167 mg/dL and 182 mg/dL and 163 mg/dL and 274 mg/dL
Blood glucose after refeeding ([4]; 10 mg/kg, Day 28, 4 hr, individual animals, 10 mg/kg): 256 mg/dL and 306 mg/dL and 290 mg/dL and 274 mg/dL and 297 mg/dL and 345 mg/dL
Blood glucose after refeeding ([4]; 10 mg/kg, Day 28, 6 hr, individual animals, 10 mg/kg): 334 mg/dL and 357 mg/dL and 336 mg/dL and 316 mg/dL and 282 mg/dL and 356 mg/dL
Blood glucose after refeeding ([4]; 10 mg/kg, Day 28, -0.25 hr, individual animals, 10 mg/kg): 157 mg/dL and 175 mg/dL and 184 mg/dL and 155 mg/dL and 151 mg/dL and 135 mg/dL
Blood glucose after refeeding AUC ([4]; 10 mg/kg, Day 28, individual animals, 10 mg/kg): 1526.0 and 1424.3 and 1491.8 and 1462.3 and 1397.8 and 1875.8

Reference: publication PMC8379256, “A xanthene derivative, DS20060511, attenuates glucose intolerance by inducing skeletal muscle-specific GLUT4 translocation in mice” (Communications Biology, 2021)
